The numbers were not newly measured in US20040176344A1, “METHOD TO TREAT PATIENTS WITH AMYOTROPHIC LATERAL SCLEROSIS AND THE LIKE” (priority 2004, published 2004), which cites them from elsewhere.

For data set [1] the following is noted: acute intermittent porphyria; Khanderia 1986.
The next data set relates to mouse of ALS. The following applies: mouse model of ALS; J Neurochem 2003.

SMILES strings stand for the structures.

Turning to `C=CC1=C(C)c2cc3[n-]c(cc4[n-]c(cc5nc(cc1n2)C(C)=C5C=C)c(C)c4CCC(=O)O)c(CCC(=O)O)c3C.O.[Fe+2]` [hematin], the “adverse effect that precludes prophylactic use” value in data set [1] was “causes circulatory collapse”.
Turning to `Cl.O=C([O-])c1ccc(-c2c3nc(c(-c4ccc(C(=O)O)cc4)c4nc(c(-c5ccc(C(=O)O)cc5)c5ccc([nH]5)c(-c5ccc(C(=O)[O-])cc5)c5ccc2[n-]5)C=C4)C=C3)cc1.[Fe+3]` [FeTCPP], the “effect on disease progression” value with mouse of ALS is listed as “helpful in slowing disease progression”.
